According to patent publication US20070249623A1, “1-(Indole-6-Carbonyl-D-Phenylglycinyl)-4-(1-Methylpiperidin-4-Yl)Piperazine D-Tartrate” (Eli Lilly and Company Patent Division, priority 2004, published 2007):
Like-named read-outs stand apart in the source and are kept apart here.

Experiments:
[1] = solid form stability at high relative humidity and in aqueous suspension; type: physicochemical
Text: Salts of 1-(indole-6-carbonyl-D-phenylglycinyl)-4-(1-methylpiperidin-4-yl)piperazine that form crystalline solids are disclosed in Examples 48a (hydrochloride salt) and 48b (difumarate salt) of WO 01/96323. […] Thus, the form disclosed in WO 02/100847 as Form 1 is obtained as thin needles. The thin needle morphology has disadvantages for formulation, however, because of, inter alia, clustering and low bulk density. […] The form disclosed in WO 02/100847 as Form 2 has the disadvantage, inter alia, that the particle size is very small, resulting in extremely slow filtration.

equilibrium solubility = type: physicochemical; details: thermodynamic from solid, 25° C., measured as the free base
[2] = moisture sorption isotherm (vacuum microbalance); type: physicochemical; details: ambient temperature, once the dihydrate had been formed
Procedure: A moisture sorption isotherm of the D-tartrate crystals was also determined using a vacuum microbalance, with a 40° C. drying step prior to initial data collection. With the initial drying step, an initial 6% weight loss was observed, consistent with the removal of the waters of crystallization. As the relative humidity was increased, the sample resorbed water, with rehydration being completed when the relative humidity reached about 20%.

Factor Xa = Factor Xa (Homo sapiens, UniProt P00742); details: as disclosed in WO 00/76971; cited from earlier work
Factor Xa, sequence (P00742 235-488 limits assumed): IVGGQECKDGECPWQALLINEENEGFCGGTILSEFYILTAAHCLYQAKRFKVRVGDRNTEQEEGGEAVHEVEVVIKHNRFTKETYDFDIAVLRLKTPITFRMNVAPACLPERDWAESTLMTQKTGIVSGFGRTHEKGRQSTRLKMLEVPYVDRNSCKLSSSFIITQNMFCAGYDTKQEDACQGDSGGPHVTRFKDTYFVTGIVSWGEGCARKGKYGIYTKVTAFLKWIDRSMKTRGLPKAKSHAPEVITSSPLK
Factor Xa, sequence (P00742 41-179 partner limits assumed): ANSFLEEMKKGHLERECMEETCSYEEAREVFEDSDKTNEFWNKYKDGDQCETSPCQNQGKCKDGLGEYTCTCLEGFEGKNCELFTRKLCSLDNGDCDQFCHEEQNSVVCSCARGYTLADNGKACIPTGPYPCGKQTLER

## CN1CCC(N2CCN(C(=O)[C@H](NC(=O)c3ccc4cc[nH]c4c3)c3ccccc3)CC2)CC1.O=C(O)/C=C/C(=O)O.O=C(O)/C=C/C(=O)O [Form 1]
[1]; above 80% relative humidity
  form conversion under extremely high relative humidity: convert to a different (higher) hydrate
[1]; aqueous suspensions
  form conversion in aqueous suspensions: convert into the form disclosed in WO 02/100847 as Form 2

## CN1CCC(N2CCN(C(=O)[C@H](NC(=O)c3ccc4cc[nH]c4c3)c3ccccc3)CC2)CC1.O.O.O=C(O)C(O)C(O)C(=O)O [D-tartrate crystals, 1-(Indole-6-carbonyl-D-phenylglycinyl)-4-(1-methylpiperidin-4-yl)piperazine D-Tartrate Dihydrate]
Equilibrium solubility; simulated gastric fluid, 0.01 M HCl, read-out: equilibrium solubility in 0.01 M HCl
  solubility thermodynamic: ≥ 125 mg/mL
Equilibrium solubility; water, read-out: equilibrium solubility in water
  solubility thermodynamic: ≥ 126 mg/mL
[2]
  stability of the dihydrate to relative humidity: remained stable between 5 and 95% relative humidity

## CN1CCC(N2CCN(C(=O)[C@H](NC(=O)c3ccc4cc[nH]c4c3)c3ccccc3)CC2)CC1 [1-(indole-6-carbonyl-D-phenylglycinyl)-4-(1-methylpiperidin-4-yl)-piperazine]
Factor Xa
  inhibition of Factor Xa: potent and selective inhibitor of Factor Xa
